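Values below derive from 48-hour exposures of cells grown in 96-well plates, with endpoints linearly interpolated between the two concentrations bracketing the appropriate inhibition level. Abbreviation: GI50, concentration required for 50% inhibition of growth.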 Calls of active or inactive are those of the source. Cut-off read from the data, not from the text of the source: active = GI50 up to about 1.1 µM and inactive = higher.
Experiments:
Assay in all cases: NCI tumour cell line growth inhibition, 48 h
[1] = test system: ACHN
[2] = test system: CAKI-1
[3] = test system: COLO 205
[4] = test system: EKVX
[5] = test system: HCT-15
[6] = test system: HOP-62
[7] = test system: HT-29
[8] = test system: KM12
[9] = test system: OVCAR-5
[10] = test system: RPMI-8226
[11] = test system: SF-295
[12] = test system: SK-MEL-28
[13] = test system: SN12C
[14] = test system: SNB-19
[15] = test system: SNB-75
[16] = test system: SW-620
[17] = test system: UACC-257
[18] = test system: UO-31
[19] = test system: HOP-92
[20] = test system: NCI-H522

CSc1nc(N)c2c(-c3ccccc3)c3c(nc2n1)CCCC3
GI50 [1]: > 100 µM (inactive)
GI50 [2]: > 100 µM (inactive)
GI50 [3]: > 100 µM (inactive)
GI50 [4]: > 100 µM (inactive)
GI50 [5]: > 100 µM
GI50 [6]: 98.4 µM (inactive)
GI50 [7]: > 100 µM (inactive)
GI50 [8]: > 100 µM (inactive)
GI50 [9]: > 100 µM (inactive)
GI50 [10]: > 100 µM (inactive)
GI50 [11]: > 100 µM (inactive)
GI50 [12]: > 100 µM (inactive)
GI50 [13]: > 100 µM (inactive)
GI50 [14]: > 100 µM (inactive)
GI50 [15]: 31.3 µM (inactive)
GI50 [16]: > 100 µM (inactive)
GI50 [17]: > 100 µM (inactive)
GI50 [18]: 3.38 µM (inactive)

NC(=O)Oc1ccccc1 [CARBAMIC ACID PHENYL ESTER]
GI50 [1]: > 100 µM (inactive)
GI50 [3]: > 100 µM (inactive)
GI50 [5]: > 100 µM
GI50 [19]: > 100 µM (inactive)
GI50 [7]: > 100 µM (inactive)
GI50 [8]: > 100 µM (inactive)
GI50 [20]: > 100 µM (inactive)
GI50 [11]: > 100 µM (inactive)
GI50 [12]: > 100 µM (inactive)
GI50 [13]: > 100 µM (inactive)
GI50 [14]: > 100 µM (inactive)
GI50 [15]: > 100 µM (inactive)
GI50 [16]: > 100 µM (inactive)
GI50 [17]: > 100 µM (inactive)
GI50 [18]: > 100 µM (inactive)

CC(=C/c1ccccc1)/C=C1/NC(=S)N(/C=C2\C(=O)Oc3ccccc3C2=O)C1=O
GI50 [1]: 46 µM (inactive)
GI50 [3]: 36.7 µM (inactive)
GI50 [4]: 27.9 µM (inactive)
GI50 [5]: 45.7 µM
GI50 [6]: 83.2 µM (inactive)
GI50 [19]: 7.78 µM (inactive)
GI50 [8]: 27.5 µM (inactive)
GI50 [20]: 22.7 µM (inactive)
GI50 [9]: > 100 µM (inactive)
GI50 [10]: 26.6 µM (inactive)
GI50 [11]: > 100 µM (inactive)
GI50 [12]: 52.1 µM (inactive)
GI50 [13]: 98.6 µM (inactive)
GI50 [14]: 65.6 µM (inactive)
GI50 [15]: > 100 µM (inactive)
GI50 [17]: 66.7 µM (inactive)

N#CC1=C(N)N(c2ccccc2)C(c2ccco2)C1(C#N)C#N (stereo unspecified)
GI50 [1]: 16.7 µM (inactive)
GI50 [2]: 30.6 µM (inactive)
GI50 [3]: 19.4 µM (inactive)
GI50 [4]: 20 µM (inactive)
GI50 [5]: 18.3 µM
GI50 [6]: 21.8 µM (inactive)
GI50 [7]: 20 µM (inactive)
GI50 [8]: 17.4 µM (inactive)
GI50 [20]: 16.7 µM (inactive)
GI50 [9]: 22.9 µM (inactive)
GI50 [10]: 19.4 µM (inactive)
GI50 [11]: 28.4 µM (inactive)
GI50 [12]: 17.9 µM (inactive)
GI50 [13]: 30.3 µM (inactive)
GI50 [14]: 26.9 µM (inactive)
GI50 [15]: 20 µM (inactive)
GI50 [16]: 17.9 µM (inactive)
GI50 [17]: 18.4 µM (inactive)
GI50 [18]: 18.7 µM (inactive)

Cc1ccccc1-c1nc2c(C(=O)NCCN(C)C)cccc2[nH]1
GI50 [2]: 47.6 µM (inactive)
GI50 [3]: 18.5 µM (inactive)
GI50 [4]: > 100 µM (inactive)
GI50 [5]: 43.8 µM
GI50 [6]: 31.5 µM (inactive)
GI50 [19]: 20.6 µM (inactive)
GI50 [7]: 31.8 µM (inactive)
GI50 [8]: 52.8 µM (inactive)
GI50 [20]: 59.3 µM (inactive)
GI50 [9]: 40.2 µM (inactive)
GI50 [10]: 27.7 µM (inactive)
GI50 [11]: 34.1 µM (inactive)
GI50 [12]: > 93.3 µM (inactive)
GI50 [13]: 40.4 µM (inactive)
GI50 [14]: 48.6 µM (inactive)
GI50 [15]: 39.3 µM (inactive)
GI50 [16]: 26.5 µM (inactive)
GI50 [17]: 39.8 µM (inactive)
GI50 [18]: 20 µM (inactive)

COc1ccc(-c2nnc(-c3ccncc3)o2)cc1
GI50 [1]: > 100 µM (inactive)
GI50 [2]: > 100 µM (inactive)
GI50 [3]: > 100 µM (inactive)
GI50 [4]: > 100 µM (inactive)
GI50 [5]: > 100 µM
GI50 [6]: > 100 µM (inactive)
GI50 [19]: > 100 µM (inactive)
GI50 [7]: > 100 µM (inactive)
GI50 [20]: > 100 µM (inactive)
GI50 [9]: > 100 µM (inactive)
GI50 [10]: > 100 µM (inactive)
GI50 [11]: > 100 µM (inactive)
GI50 [12]: > 100 µM (inactive)
GI50 [13]: > 100 µM (inactive)
GI50 [14]: 78.7 µM (inactive)
GI50 [15]: > 100 µM (inactive)
GI50 [17]: > 100 µM (inactive)
GI50 [18]: > 100 µM (inactive)

Cc1ccc(NC(=O)c2cccc([N+](=O)[O-])c2O)c(C)c1
GI50 [1]: 16.8 µM (inactive)
GI50 [2]: 6.97 µM (inactive)
GI50 [3]: 23.9 µM (inactive)
GI50 [4]: 17.1 µM (inactive)
GI50 [6]: 33.3 µM (inactive)
GI50 [7]: 29.4 µM (inactive)
GI50 [8]: 27.7 µM (inactive)
GI50 [20]: 7.06 µM (inactive)
GI50 [9]: 20.5 µM (inactive)
GI50 [10]: 11.6 µM (inactive)
GI50 [11]: 20.1 µM (inactive)
GI50 [12]: 6.97 µM (inactive)
GI50 [13]: 15.8 µM (inactive)
GI50 [14]: 24.2 µM (inactive)
GI50 [15]: 23.5 µM (inactive)
GI50 [16]: 28.4 µM (inactive)
GI50 [17]: 14 µM (inactive)
GI50 [18]: 3.31 µM (inactive)

CC(=O)ON1C(=O)c2cccc3cccc(c23)C1=O
GI50 [1]: 28.4 µM (inactive)
GI50 [2]: 17.9 µM (inactive)
GI50 [3]: 26.8 µM (inactive)
GI50 [4]: 28.1 µM (inactive)
GI50 [5]: 18 µM
GI50 [6]: 22.8 µM (inactive)
GI50 [19]: > 100 µM (inactive)
GI50 [7]: 27.2 µM (inactive)
GI50 [8]: 14.6 µM (inactive)
GI50 [20]: 14.6 µM (inactive)
GI50 [9]: 35.1 µM (inactive)
GI50 [10]: 12.7 µM (inactive)
GI50 [11]: 20.9 µM (inactive)
GI50 [12]: 17.9 µM (inactive)
GI50 [14]: 36.8 µM (inactive)
GI50 [16]: 5.62 µM (inactive)
GI50 [17]: 23.8 µM (inactive)
GI50 [18]: 6.27 µM (inactive)

Reference: ChEMBL document CHEMBL1201862, “PubChem BioAssay data set” (2004)
